ChEMBL document CHEMBL1641532, “Thiophene and bioisostere derivatives as new MMP12 inhibitors” (Bioorg Med Chem Lett, 2011)

These compounds were tested against Macrophage metalloelastase (Homo sapiens, UniProt P39900) (assay: Inhibition of MMP-12 catalytic domain).
Sequence of Macrophage metalloelastase (P39900 whole entry, the tested form may be a part): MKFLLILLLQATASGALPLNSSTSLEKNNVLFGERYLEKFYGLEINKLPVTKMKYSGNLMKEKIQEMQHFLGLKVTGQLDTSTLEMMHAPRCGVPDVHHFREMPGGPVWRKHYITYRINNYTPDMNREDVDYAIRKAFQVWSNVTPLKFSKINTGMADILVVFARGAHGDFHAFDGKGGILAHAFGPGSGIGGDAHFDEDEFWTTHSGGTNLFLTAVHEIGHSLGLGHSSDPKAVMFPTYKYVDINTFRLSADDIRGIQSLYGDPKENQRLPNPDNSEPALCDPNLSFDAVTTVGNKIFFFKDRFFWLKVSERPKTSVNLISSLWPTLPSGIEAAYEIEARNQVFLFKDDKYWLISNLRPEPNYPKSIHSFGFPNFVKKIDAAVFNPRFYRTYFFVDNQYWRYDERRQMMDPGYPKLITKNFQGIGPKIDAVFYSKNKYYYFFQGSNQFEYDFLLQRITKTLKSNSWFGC

IC50 [nM] | SMILES
400 | O=C(NC[C@H]1CC[C@H](C(=O)O)CC1)c1cc(-c2ccc(OC(F)(F)F)cc2)cs1
3600 | O=C(NC[C@H]1CC[C@H](C(=O)O)CC1)c1cc(-c2ccc(OC(F)(F)F)cc2)ns1
31000 | O=C(NC[C@H]1CC[C@H](C(=O)O)CC1)c1cc(-c2ccc(OC(F)(F)F)cc2)sn1
200 | O=C(O)C[C@@H](NC(=O)c1cc(-c2ccc(OC(F)(F)F)cc2)c(F)s1)c1ccccc1
85 | NC(=O)C[C@@H](NC(=O)c1cc(-c2ccc(OC(F)(F)F)cc2)c(F)s1)c1ccccc1
13 | O=C(O)C[C@@H](NC(=O)c1cc(-c2ccc(-c3ccncc3)cc2)c(F)s1)c1ccccc1
